For 1 compound, IC50 results are on record in ChEMBL document CHEMBL1134203, “Discovery of potent and selective succinyl hydroxamate inhibitors of matrix metalloprotease-3 (stromelysin-1)” (Bioorg Med Chem Lett, 2001).

Experiment [1] addresses Matrix metalloproteinase-14 (Homo sapiens, UniProt P50281).
For experiment [2], the target named is Matrix metalloproteinase-9 (Homo sapiens, UniProt P14780).
Chain of Matrix metalloproteinase-9 (P14780 whole entry): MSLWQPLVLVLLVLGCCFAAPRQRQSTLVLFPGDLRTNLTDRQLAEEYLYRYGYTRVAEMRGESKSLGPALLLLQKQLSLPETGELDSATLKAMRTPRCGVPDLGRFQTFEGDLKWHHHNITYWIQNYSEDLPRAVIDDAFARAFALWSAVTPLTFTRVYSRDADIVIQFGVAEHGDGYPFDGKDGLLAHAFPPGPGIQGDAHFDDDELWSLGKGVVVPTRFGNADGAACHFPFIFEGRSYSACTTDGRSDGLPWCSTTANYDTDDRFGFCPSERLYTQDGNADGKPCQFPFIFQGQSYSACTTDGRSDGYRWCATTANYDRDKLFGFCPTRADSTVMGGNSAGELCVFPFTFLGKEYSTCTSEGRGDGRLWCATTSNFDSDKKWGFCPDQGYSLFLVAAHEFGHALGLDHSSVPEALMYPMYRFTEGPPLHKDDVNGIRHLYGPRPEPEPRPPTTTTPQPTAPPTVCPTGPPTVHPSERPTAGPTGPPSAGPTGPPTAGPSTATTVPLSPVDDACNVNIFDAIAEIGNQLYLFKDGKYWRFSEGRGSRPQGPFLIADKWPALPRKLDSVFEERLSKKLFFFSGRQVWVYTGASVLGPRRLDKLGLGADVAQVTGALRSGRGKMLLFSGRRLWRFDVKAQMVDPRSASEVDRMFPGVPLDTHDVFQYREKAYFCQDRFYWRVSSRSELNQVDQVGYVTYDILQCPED

As usually defined, the IC50 is the concentration that gives 50% inhibition. For `Cc1cc(CCC[C@H](CC(=O)NO)C(=O)N[C@H](C(=O)N[C@H](C)c2ccccc2)C(C)(C)C)ccc1-c1ccccc1`, the IC50 in experiment [1] was 1.9 µM; in experiment [2], 0.84 µM.
